Measured values: ChEMBL document CHEMBL6177963, “Development of acylhydrazone linked thiazoles as non-covalent dual inhibitors of SARS-CoV-2 proteases” (Eur J Med Chem, 2025)
Activity calls are given as the source filed them. No cut-off for these calls is given here.

Columns and labels:
[1] = molecular target: Replicase polyprotein 1ab (Severe acute respiratory syndrome coronavirus 2) (UniProt P0DTD1); test: Inhibition of recombinant SARS-CoV-2 PLpro using TLKGGI-AMC as substrate assessed as assessed as inhibition constant ny measuring fluorescence signal at 10 uM measured after 15 mins relative to control
[2] = molecular target: Replicase polyprotein 1ab (Severe acute respiratory syndrome coronavirus 2, UniProt P0DTD1); test: Inhibition of recombinant SARS-CoV-2 PLpro using TLKGGI-AMC as substrate assessed as assessed as inhibition constant ny measuring fluorescence signal measured after 15 mins
SARS-CoV-2 [3] = test: Anti-viral activity against SARS-CoV-2 Calu-3 by direct yield reduction assay (DYRA); assay type: functional, organism-based; conditions: Severe acute respiratory syndrome coronavirus 2, Calu-3, Calu-3
[4] = molecular target: Replicase polyprotein 1ab (Severe acute respiratory syndrome coronavirus 2) (UniProt P0DTD1); test: Binding affinity to SARS-CoV-2 PLpro assessed as thermal stability by measuring melting temperature of half of the proteins unfolded by differential scanning fluorimetry (DSF) (reference value: 45.79 degC)
SARS-CoV-2 [5] = test: Antiviral activity against SARS-CoV-2 infected in African green monkey Vero E6 cells assessed as viral load reduction at 4 uM by measuring viral RNA measured up to 72 hrs by RT-PCR analysis relative to control; assay type: functional, Severe acute respiratory syndrome coronavirus 2, Vero C1008; set-up: scale not given: the % may be the effect or the level left
[6] = molecular target: Replicase polyprotein 1ab (Severe acute respiratory syndrome coronavirus 2) (UniProt P0DTD1); test: Non-covalent inhibition of SARS-CoV-2 PLpro by Lineweaver-Burk Plot analysis
[7] = test system: Severe acute respiratory syndrome coronavirus 2; test: Binding affinity to SARS-CoV-2 MPro assessed as thermal stability by measuring melting temperature of half of the proteins unfolded by differential scanning fluorimetry (DSF) (reference value: 52.46 degC)
[8] = Cytotoxicity against human HEK293 cells assessed as cell viability measured after 48 hrs by MTT assay; assay type: toxicity, cell-based
[9] = Cytotoxicity against African green monkey Vero E6 cells assessed as cell viability at 100 uM measured after 48 hrs by MTT assay relative to control; assay type: toxicity, cell-based, Vero C1008; conditions: chlorocebus sabaeus, read-out: Activity
SARS-CoV-2 [10] = test: Antiviral activity against SARS-CoV-2 infected in African green monkey Vero E6 cells assessed as viral reduction by measuring viral RNA measured up to 72 hrs by RT-PCR analysis; assay type: functional, organism-based; conditions: Severe acute respiratory syndrome coronavirus 2, SARS-CoV-2, Vero C1008, 72 h
[11] = molecular target: Chymotrypsin (Homo sapiens) (UniProt Q99895+P17538+P40313+Q6GPI1); test: Inhibition of Chymotrypsin (unknown origin) assessed as BSA digestion; assay type: protein assay
[12] = Inhibition of SARS-CoV-2 MPro using Dabcyl-KTSAVLQ/SGFRKME- (Edans) as substrate by FRET assay; set-up: species or system Severe acute respiratory syndrome coronavirus 2
[13] = test system: Severe acute respiratory syndrome coronavirus 2; test: Non-covalent inhibition of SARS-CoV-2 MPro by Lineweaver-Burk Plot analysis
Human coronavirus 229E = test: Antiviral activity against HCoV-229E infected in human Huh7.5 Fluc cells; assay type: functional, organism-based
SARS-CoV-2 [14] = test: Antiviral activity against SARS-CoV-2 infected in African green monkey Vero E6 cells assessed as viral load reduction at 0.125 uM by measuring viral RNA measured up to 72 hrs by RT-PCR analysis relative to control; assay type: functional, Severe acute respiratory syndrome coronavirus 2, Vero C1008; set-up: scale not given: the % may be the effect or the level left
SARS-CoV-2 [15] = test: Anti-viral activity against SARS-CoV-2 BavPat1 infected in Vero E6 cells assessed as inhibition of viral RNA replication; assay type: functional, organism-based; conditions: Severe acute respiratory syndrome coronavirus 2, BavPat1, Vero C1008

SMILES: Cc1ccc(-c2csc(NNC(=O)c3ccc(Cl)cc3)n2)cc1
- inhibition [1]: < 50%
- Ki [2]: Not_active

SMILES: Cc1nc(NC(=O)C(C)(C)C)sc1-c1cnc(N(CC(C)(C)O)C2CCCCC2)s1
- IC50 (SARS-CoV-2 [3]): 1.57 µM

SMILES: Cc1ccc(C(=O)NNc2nc(-c3ccc(Cl)cc3)cs2)cc1
- Tm [4]: 45.8 °C
- Activity (SARS-CoV-2 [5]): >70%
- Activity [6]: Active
- Tm [7]: 51.8 °C
- IC50 at 48 h [8]: 41.1 µM
- viability at 48 h, 100 µM [9]: 91.5%
- EC50 (SARS-CoV-2 [10]): 0.068 µM
- inhibition [11]: inactive
- Ki ([2]; read-out: Ki): 0.24 µM

SMILES: CCOC(=O)c1sc(NNC(=O)c2ccccc2OC)nc1C
- Ki [2]: Not_active

SMILES: Clc1nc2ccccc2cc1/C=N/Nc1nc(-c2ccccc2)cs1
- inhibition [1]: < 50%
- Ki [2]: Not_active

SMILES: N#Cc1ccc2nc(N3C(=O)CSC3c3c(F)cccc3Cl)sc2c1 (stereo unspecified)
- IC50 [12]: 0.01 µM

SMILES: CCOC(=O)c1sc(NNC(=O)c2ccc(C)cc2)nc1C
- inhibition [1]: < 50%
- Ki ([2]; read-out: Ki): 0.23 µM

SMILES: CCOC(=O)c1sc(NNC(=O)c2ccccc2C)nc1C
- inhibition [1]: < 50%
- Ki [2]: Not_active

SMILES: CCOC(=O)c1sc(NNC(=O)c2cccs2)nc1C
- Tm [4]: 41.1 °C
- Activity (SARS-CoV-2 [5]): >70%
- Activity [6]: Active
- Tm [7]: 49.8 °C
- IC50 at 48 h [8]: 45.8 µM
- viability at 48 h, 100 µM [9]: 87.9%
- EC50 (SARS-CoV-2 [10]): 0.118 µM
- inhibition [11]: inactive
- Activity [13]: Active
- Ki ([2]; read-out: Ki): 0.23 µM

SMILES: O=C(NNc1nc(-c2ccc(Br)cc2)cs1)c1ccc([N+](=O)[O-])cc1
- viability at 48 h, 100 µM [9]: 99.5%
- inhibition [11]: inactive
- Ki ([2]; read-out: Ki): 4.22 µM

SMILES: COC(=O)c1sc(NNC(=O)c2ccc([N+](=O)[O-])cc2)nc1C
- inhibition [1]: < 50%
- Ki [2]: Not_active

SMILES: C=C1NC(=O)[C@]2(C)CSC(=N2)c2csc(n2)[C@]2(C)CSC(=N2)C([C@@H](C)CC)NC(=O)[C@@H](C)NC(=O)/C(=C\C(C)C)COC(=O)c2csc(n2)[C@H](C(C)C)N(C)C(=O)[C@H](COC)NC1=O (stereo partly specified)
- IC50 (Human coronavirus 229E): 2.39 µM

SMILES: CCOC(=O)c1sc(NNC(=O)c2ccco2)nc1C
- inhibition [1]: < 50%
- Ki [2]: Not_active

SMILES: O=C(NNc1nc(-c2ccc(Br)cc2)cs1)c1ccc(F)cc1
- Tm [4]: 45.9 °C
- Activity [6]: Active
- Tm [7]: 51.1 °C
- IC50 at 48 h [8]: 10.5 µM
- viability at 48 h, 100 µM [9]: 91.8%
- inhibition [11]: inactive
- Activity [13]: Active
- Ki ([2]; read-out: Ki): 0.15 µM

SMILES: O=C(NNc1nc(-c2ccc(Cl)cc2)cs1)c1ccc(Br)cc1
- inhibition [1]: < 50%
- Ki [2]: Not_active

SMILES: Cc1ccc(-c2csc(NNC(=O)c3ccc(F)cc3)n2)cc1
- Activity (SARS-CoV-2 [14]): >70%
- Tm [4]: 47.1 °C
- Activity (SARS-CoV-2 [5]): >70%
- IC50 at 48 h [8]: 25.3 µM
- viability at 48 h, 100 µM [9]: 92.1%
- EC50 (SARS-CoV-2 [10]): 0.038 µM
- inhibition [11]: inactive
- Ki ([2]; read-out: Ki): 0.34 µM

SMILES: CC(=O)Oc1ccccc1C(=O)Nc1ncc([N+](=O)[O-])s1 [NITAZOXANIDE]
- EC50 (SARS-CoV-2 [15]): 7.48 µM

SMILES: CCOC(=O)c1sc(NNC(=O)c2cccc(Cl)c2)nc1C
- inhibition [1]: < 50%
- Ki [2]: Not_active

SMILES: O=C(NNc1ncc(-c2ccc(Cl)cc2)s1)c1ccc2ccccc2c1
- Ki ([2]; read-out: Ki): 2.13 µM

SMILES: CCOC(=O)c1sc(NNC(=O)c2ccc(Cl)cc2)nc1C
- Activity (SARS-CoV-2 [14]): >70%
- Tm [4]: 44.7 °C
- Activity (SARS-CoV-2 [5]): >80%
- Activity [6]: Active
- Tm [7]: 52.1 °C
- IC50 at 48 h [8]: 45.5 µM
- viability at 48 h, 100 µM [9]: 92.5%
- EC50 (SARS-CoV-2 [10]): 0.072 µM
- inhibition [11]: inactive
- Ki [2]: Not_active

SMILES: O=C(O)c1ccccc1/C=N/Nc1ncc(-c2ccccc2Cl)s1
- EC50 (SARS-CoV-2 [15]): 1.59 µM
